Results reported in patent US20080103198A1, “METHODS FOR TREATMENT OF COCHLEAR AND VESTIBULAR DISORDERS” (priority 2006, published 2008).
Structures can show the parent of a compound that is named as a salt.

Assays:
PC12 cells = assay: PC12 cell serum withdrawal model (MTS assay); type: cell-based; settings: control cells = 100%
From the text: Serum withdrawal is a cytotoxic environmental challenge that results in cell death in cultured cell lines as well as in primary cells of various tissue origins, including nerve cells. In particular, pheochromocytoma (PC) 12 cells have been widely employed as an in vitro neuronal cell model for a wide variety of neurodegenerative and cell death related disorders (Muriel, et al, Mitochondrial free calcium levels (Rhod-2 fluorescence) and ultrastructural alterations in neuronally differentiated PC12 cells during ceramide-dependent cell death, J. Comp. Neurol., 2000, 426(2), 297-315; Dermitzaki, et al, Opioids transiently prevent activation of apoptotic mechanisms following short periods of serum withdrawal, J. Neurochem., 2000, 74(3), 960-969; Carlile, et al, Reduced apoptosis after nerve growth factor and serum withdrawal: conversion of tetrameric glyceraldehyde-3-phosphate dehydrogenase to a dimer, Mol. Pharmacol., 2000, 57(1), 2-12).
PC12 cells were cultured in sterile media (RPMI 1640) supplemented with 10% heat-inactivated horse serum and 5% fetal bovine serum (FBS). The culture medium also contained Penicillin-Streptomycin-Neomycin antibiotic (50µg, 50µg, 100µg, respectively). Medium was exchanged every other day and the cells were passed in log phase near confluence.
The control cells were cultured in regular media without any treatment. An enantiomer of Formula 7 or Formula 8 (10µM) was mixed well in the medium and then applied to the cells. For the 2 day assay, an enantiomer of Formula 7 or Formula 8 (10µM) was only applied to the cells once at the time of serum withdrawal. For the 7 day assay, an enantiomer of Formula 7 or Formula 8 (10. mu.M) was applied to the cells at the time of serum withdrawal and every 48 hr thereafter when cells were changed with fresh new serum-free medium. In the serum withdrawal group, the cells were cultured in serum-free medium with no additional enantiomer of Formula 7 or Formula 8. Cell survival was determined by the 3-(4,5-dimethylthiazol-2-yl)-5-(3-carboxy-methoxyphenyl)-2-(4-sulfophenyl)-2H-tetrazolium inner salt (MTS) assay at 2 or 7 days after serum withdrawal.
At the end of the experiment, cells were washed with fresh medium and incubated with MTS solution in a humidified 37° C. with 5% CO2 incubator for 1.5 hr. After the incubation period, the cells were immediately analyzed using a Softmax program (Molecular Devices). […] The assay is based on the cellular conversion of the tetrazolium salt, MTS, into a formazan that is soluble in tissue culture medium and measured directly at 490 nm in 96-well assay plates. The absorbance is directly proportional to the number of living cells in culture. The arbitrary absorbance reading in control cells is expressed as 100% survival rate.

[1] = test system: transient cerebral ischemia (MCAO); assay: Transient cerebral ischemia middle cerebral artery occlusion (MCAO) rat model; type: in vivo; settings: MK 801 3 mg/kg i.p.; N=12
Procedure: The enantiomer of Formula 7 was investigated in the transient cerebral ischemia middle cerebral artery occlusion (MCAO) rat model (as described in Nagasawa H. and Kogure K., Stroke, 1989, 20, 1037; and, Zea Longa E., Weinstein P. R., Carlson S, and Cummins R., Stroke, 1989, 20, 84) using male Wistar rats at 10 and 100 mg/kg (i.v.). MK 801 (Dizocilpine maleate; CAS Registry number 77086-22-7, a commercially available neuroprotectant compound) was used as a positive control (3 mg/kg, i.p.).
Rats (n=12) were randomly allocated to one of four experimental groups and were anesthetized. Blood flow from the internal carotid artery, anterior cerebral artery and posterior cerebral artery into the middle cerebral artery was blocked by this procedure. One hour after blockage, animals were treated over a 1 hour period with vehicle (administered i.v. over the one hour period), control (administered as a single i.p. dose at the start of the one hour period) and two doses of the enantiomer of Formula 7 (administered i.v. over the one hour period). Two hours after blockage, reperfusion was performed.
The animals were sacrificed and […] coronal sections of each brain were prepared. One in every forty sections (i.e. every […]) from the front to the occipital cortex was used to quantify the extent of the cerebral lesion. Slides were prepared using sections stained (according to the Nissl procedure) with cresyl violet and were examined under a light microscope.
Regional ischemic surface areas in the coronal sections of individual rats were determined according to the presence of cells with morphological changes. The areas of neuronal injury or infarction were measured and then added. The cortex and striatum volume were calculated for each animal (total ischemic surface area×0.8 mm (thickness)).
The mean volumes (.+−.S.E.M.) for each animal randomly assigned to the four experimental groups were compared using one-way ANOVA (one way ANOVA is a statistical method which compares 3 or more unmatched groups) followed by Dunnett's t-test (both methods incorporated in Statview 512+software, BarinPower, Calabasas, Calif., USA).

| Structure (SMILES) | 2 Day Survival Rate (PC12 cells; 10 µM applied once at serum withdrawal) | 7 Day Survival Rate (PC12 cells; 10 µM at serum withdrawal and every 48 hr) | Mean Infarct Volume ± S.E.M., Cortex Volume [1] | Mean Infarct Volume ± S.E.M., Striatum [1] | Mean Infarct Volume ± S.E.M., Total [1] |
| --- | --- | --- | --- | --- | --- |
| NC(=O)OC[C@H](OC(N)=O)c1ccccc1Cl [Formula 8] | 66.4 ± 5.4^1% | 85.2 ± 0.6^2% | – | – | – |
| C[C@]12N[C@H](Cc3ccccc31)c1ccccc12 [MK 801, Dizocilpine maleate, reference compound] | – | – | 95.8 ± 24.5^1 mm^3 | 56.1 ± 5.3^2 mm^3 | 151.9 ± 28.7^1 mm^3 |
